The subject of series [1] is maximal electroshock seizures. In words: Maximum Electroshock Seizure (MES) test, mice. It counts as in vivo. The procedure: (§1) In order to define anticonvulsant activity, screening tests were performed, using animal models of seizures. […] Each substance (after dissolving in methylcellulose) was normally tested in doses 30, 100, and 300 mg/kg body weight (b.w.) (mice) or in 30 and 50 mg/kg b.w. (rats) in two possible routes of administration: intraperitoneal (i.p.) or oral (p.o.). Appropriate tests were performed 0.5 and 4 h after administration of the compound. […] (mice) the tests were also performed in doses 10 and 3 mg/kg b.w.
Maximum Electroshock Seizure (MES) test is an electric test, verifying activity towards generalized tonic-clonic seizures (grand mal epilepsy). […] Its procedure consists in administration to an animal a mentioned dose, and after 0.5 or 4 h attaching corneal electrodes (after anesthetic eye-drops: 0.5% tetracaine hydrochloride in 0.9% NaCl) and turning on electric current (60 Hz, 0.2 s, 50 mA (mice) or 150 mA (rats)). […] Normally, in the dose 30 mg/kg b.w. the test is done in 1 mouse after 0.5 or 4 h, in the dose 100 mg/kg b.w.—in 3 mice, and in the dose 300 mg/kg b.w.—in 1 mouse.

A further series has as its system neurotoxicity (rotarod). In words: Neurotoxicity test (TOX), rotarod, mice. It counts as in vivo. How it is done: as §1
It is performed with use of rotarod test. The animal is placed on a plastic rod (1 inch in diameter), rotating 6 rpm. The rod is placed on a level discouraging the animal to jump off. […] Neurotoxicity is stated if the animal cannot stay on the rod for 1 min. in any of 3 trials. Normally the test is performed in dose 30 mg/kg b.w. in 4 mice (0.5 h) and in 2 mice (4 h), in the dose 100 mg/kg b.w. in 8 mice (0.5 h) and in 4 mice (4 h) and in the dose 300 mg/kg b.w. in 4 mice (0.5 h) and 2 mice (4 h).

[2] abbreviates: mice, dose 100 mg/kg b.w., time 0.5 h.
[3] abbreviates: mice, dose 300 mg/kg b.w., time 0.5 h.
The mark [4] stands for this setting: mice, dose 30 mg/kg b.w., time 0.5 h.
Setting [5] is: mice, dose 100 mg/kg b.w., time 4 h.
[6] abbreviates: mice, dose 300 mg/kg b.w., time 4 h.
[7] abbreviates: Mus musculus, 0.5 h, read-out: MES, No. of protected animals/No. of used animals.
Setting [8] is: mice, dose 100 mg/kg b.w., 0.5 h.
Setting [9] is: mice, dose 300 mg/kg b.w., 0.5 h.

Where a name gives a salt, the structure may show the parent alone. Read-outs that look alike come from different tables or passages of the source.

As to `CCC(CO)NCCOc1ccc(Cl)cc1C` (stereo not shown) [Compound 35, R,S-2N-[(4-chlor-2-methylphenoxy)ethyl]amino-1-butanol], the “MES, No. of protected animals/No. of used animals” value in series [1] (setting [2]) is 3/3. In addition, the results for the “TOX, No. of animals exhibiting motor impairment/no. of used animals” value with neurotoxicity (rotarod) (setting [2]) and with neurotoxicity (rotarod) (setting [3]) were 8/8 and 4/4, respectively.

In the case of `Cc1cc(Cl)ccc1OCCNC(C)(C)CO` [Compound 36, 2N-[(4-chlor-2-methylphenoxy)ethyl]amino-2-methyl-1-propanol], in series [1] (setting [2]), the “MES, No. of protected animals/No. of used animals” value is on record as 3/3. Further, the “TOX, No. of animals exhibiting motor impairment/no. of used animals” value in the series with neurotoxicity (rotarod) (setting [3]) is 4/4.

For `Cc1cc(C)c(C)c(OCCNC(C)CO)c1` (stereo not shown) [Compound 38, R,S-2N-[(2,3,5-trimethylphenoxy)ethyl]amino-1-propanol], the “MES, No. of protected animals/No. of used animals” value in series [1] (setting [4]) is recorded as 1/1; in series [1] (setting [2]), 3/3; in series [1] (setting [5]), 2/2. The “TOX, No. of animals exhibiting motor impairment/no. of used animals” value in the series with neurotoxicity (rotarod) (mouse, in vivo, 300 mg/kg) is listed as 4/4.

On to `CCC(CO)NCCOc1cc(C)cc(C)c1C` (stereo not shown) [Compound 39, R,S-2N-[(2,3,5-trimethylphenoxy)ethyl]amino-1-butanol], for which the figures for the “MES, No. of protected animals/No. of used animals” value in series [1] (setting [4]), in series [1] (setting [2]) and in series [1] (setting [5]) were 1/1, 3/3 and 1/3, respectively. Besides, the “TOX, No. of animals exhibiting motor impairment/no. of used animals” value is 7/8 with neurotoxicity (rotarod) (mouse, in vivo, 100 mg/kg) and 4/4 in the series on neurotoxicity (rotarod) (mouse, in vivo, 300 mg/kg).

In the case of `CC[C@H](CO)NCCOc1cc(C)cc(C)c1C` [Compound 40, R-(−)-2N-[(2,3,5-trimethylphenoxy)ethyl]amino-1-butanol], the responders at 30 mg/kg in series [1] (Mus musculus, mice, dose 30 mg/kg b.w., time 0.5 h, read-out: MES, No. of protected animals/No. of used animals) amounted to 100%. In addition, the responders at 100 mg/kg in series [1] (Mus musculus, mice, dose 100 mg/kg b.w., time 0.5 h, read-out: MES, No. of protected animals/No. of used animals (converted)) was 66.7%; in series [1] (Mus musculus, mice, dose 100 mg/kg b.w., time 4 h, read-out: MES, No. of protected animals/No. of used animals (converted)), 33.3%. In addition, the entries for the “TOX, No. of animals exhibiting motor impairment/no. of used animals” value with neurotoxicity (rotarod) (setting [2]) and with neurotoxicity (rotarod) (setting [3]) were 4/8 and 4/4, respectively.

As to `CC[C@@H](CO)NCCOc1cc(C)cc(C)c1C` [Compound 41, S-(+)-2N-[(2,3,5-trimethylphenoxy)ethyl]amino-1-butanol], the results for the “MES, No. of protected animals/No. of used animals” value in series [1] (setting [4]) and in series [1] (setting [2]) were 1/1 and 3/3, respectively. Further, the “TOX, No. of animals exhibiting motor impairment/no. of used animals” value in the series with neurotoxicity (rotarod) (mouse, in vivo, 30 mg/kg) is 3/4; in the series with neurotoxicity (rotarod) (mouse, in vivo, 100 mg/kg), 7/8; in the series on neurotoxicity (rotarod) (mouse, in vivo, 300 mg/kg), 4/4.

As to `Cc1cc(C)c(C)c(OCCNCC(O)c2ccccc2)c1.Cl` (stereo not shown) [Compound 42, R,S-2N-[(2,3,5-trimethylphenoxy)ethyl]amino-1-phenylethanol hydrochloride], the “MES, No. of protected animals/No. of used animals” value in series [1] (setting [2]) is recorded as 3/3; in series [1] (setting [5]), 1/3; in series [1] (setting [3]) it was 1/1. The “TOX, No. of animals exhibiting motor impairment/no. of used animals” value is on record as 3/4 in the series with neurotoxicity (rotarod) (setting [4]); 1/2 with neurotoxicity (rotarod) (mice, dose 30 mg/kg b.w., time 4 h); 8/8 with neurotoxicity (rotarod) (setting [2]); 4/4 in the series with neurotoxicity (rotarod) (setting [5]); 4/4 in the series with neurotoxicity (rotarod) (setting [3]); 1/1 in the series on neurotoxicity (rotarod) (setting [6]).

For the molecule `Cc1cc(C)c(OCCN[C@H](C)CO)c(C)c1` [Compound 43, R-(−)-2N-[(2.4.6-trimethylphenoxy)ethyl]amino-1-propanol], in series [1] (setting [2]), the “MES, No. of protected animals/No. of used animals” value is recorded as 3/3. In addition, the “TOX, No. of animals exhibiting motor impairment/no. of used animals” value is given as 3/4 in the series with neurotoxicity (rotarod) (setting [4]), 8/8 in the series with neurotoxicity (rotarod) (setting [2]) and 4/4 with neurotoxicity (rotarod) (setting [3]).

In the case of `Cc1cc(C)c(OCCNCC(O)c2ccccc2)c(C)c1` (stereo not shown) [Compound 45, R,S-2N-[(2,4,6-trimethylphenoxy)ethyl]amino-1-phenylethanol], the “MES, No. of protected animals/No. of used animals” value is recorded as 3/3 in series [1] (setting [2]), 1/1 in series [1] (setting [3]) and 1/1 in series [1] (setting [6]). Besides, the “TOX, No. of animals exhibiting motor impairment/no. of used animals” value with neurotoxicity (rotarod) (setting [3]) is recorded as 3/4.

Consider `Cc1cccc(C)c1OCCCN[C@H](C)CO` [Compound 52, R-(−)-2N-[(2,6-dimethylphenoxy)propyl]amino-1-propanol hydrochloride], for which the responders at 30 mg/kg in series [1] (setting [7]) was 100%. In series [1] (setting [7]), the responders at 100 mg/kg is 66.7%. Moreover, the responders at 300 mg/kg in series [1] (Mus musculus, 4 h, read-out: MES, No. of protected animals/No. of used animals) is 100%. For the same molecule, the “TOX, No. of animals exhibiting motor impairment/no. of used animals” value with neurotoxicity (rotarod) (mice, dose 10 mg/kg b.w., 0.5 h) is recorded as 1/4; in the series with neurotoxicity (rotarod) (setting [8]), 6/8; with neurotoxicity (rotarod) (mice, dose 100 mg/kg b.w., 4 h), 1/4; with neurotoxicity (rotarod) (setting [9]) it was 3/4.

In the case of `Cc1cccc(C)c1OCC(=O)NC(C)CO` (stereo not shown) [Compound 60, R,S-2N-[(2,6-dimethylphenoxy)acetyl]amino-1-propanol], in series [1] (setting [9]), the “MES, No. of protected animals/No. of used animals” value is 1/1. Further, the “TOX, No. of animals exhibiting motor impairment/no. of used animals” value in the series on neurotoxicity (rotarod) (setting [8]) was 2/8; in the series with neurotoxicity (rotarod) (mice, dose 100 mg/kg b.w., 4 h) it was 2/4; in the series with neurotoxicity (rotarod) (setting [9]), 4/4.

In the case of `Cc1cccc(C)c1OCC(=O)N[C@@H](C)CO` [Compound 62, S-(−)-2N-[(2,6-dimethylphenoxy)acetyl]amino-1-propanol], the “MES, No. of protected animals/No. of used animals” value was 1/1 in series [1] (setting [9]) and 1/1 in series [1] (mice, dose 300 mg/kg b.w., 4 h). Further, the “TOX, No. of animals exhibiting motor impairment/no. of used animals” value is on record as 1/4 in the series with neurotoxicity (rotarod) (mice, dose 30 mg/kg b.w., 0.5 h); 3/8 with neurotoxicity (rotarod) (setting [8]); 1/4 in the series with neurotoxicity (rotarod) (mice, dose 100 mg/kg b.w., 4 h); 3/4 in the series with neurotoxicity (rotarod) (setting [9]); 1/2 in the series with neurotoxicity (rotarod) (mice, dose 300 mg/kg b.w., 4 h).

Regarding `CCC(O)CNC(=O)COc1c(C)cccc1C` (stereo not shown) [Compound 63, R,S-1N-[(2,6-dimethylphenoxy)acetyl]amino-2-butanol], in series [1] (setting [9]), the “MES, No. of protected animals/No. of used animals” value is recorded as 1/1. Moreover, the “TOX, No. of animals exhibiting motor impairment/no. of used animals” value in the series with neurotoxicity (rotarod) (setting [9]) is 4/4.

As for `Cc1cccc(Cl)c1OCC(=O)NC(C)CO` (stereo not shown) [Compound 69, R,S-2N-[(2-chlor-6-methylphenoxy)acetyl]amino-1-propanol], in series [1] (setting [9]), the “MES, No. of protected animals/No. of used animals” value is listed as 1/1. Moreover, the figures for the “TOX, No. of animals exhibiting motor impairment/no. of used animals” value with neurotoxicity (rotarod) (setting [8]) and in the series on neurotoxicity (rotarod) (setting [9]) were 1/8 and 1/4, respectively.

As to `Cc1cccc(Cl)c1OCC(=O)N[C@H](C)CO` [Compound 70, R-(−)-2N-[(2-chlor-6-methylphenoxy)acetyl]amino-1-propanol], the “MES, No. of protected animals/No. of used animals” value in series [1] (setting [9]) is given as 1/1. Besides, the “TOX, No. of animals exhibiting motor impairment/no. of used animals” value in the series on neurotoxicity (rotarod) (setting [9]) is 3/4.

On to `Cc1cccc(Cl)c1OCC(=O)N[C@@H](C)CO` [Compound 71, S-(+)-2N-[(2-chlor-6-methylphenoxy)acetyl]amino-1-propanol], for which the “MES, No. of protected animals/No. of used animals” value in series [1] (setting [9]) is 1/1. Besides, the “TOX, No. of animals exhibiting motor impairment/no. of used animals” value with neurotoxicity (rotarod) (setting [9]) is 4/4.

For the molecule “R,S-1N-[(2-chlor-6-methylphenoxy)ethyl]amino-2-propanol [Compound 23]”, the “MES, No. of protected animals/No. of used animals” value in series [1] (setting [4]) and in series [1] (setting [2]) was 1/1 throughout. Also, the “TOX, No. of animals exhibiting motor impairment/no. of used animals” value in the series on neurotoxicity (rotarod) (setting [2]) is recorded as 7/8; in the series with neurotoxicity (rotarod) (setting [3]) it was 4/4.

On to “R,S-1N-[(4-chlor-2-methylphenoxy)ethyl]amino-2-propanol [Compound 32]”, for which the “MES, No. of protected animals/No. of used animals” value is recorded as 1/1 in series [1] (setting [4]), 3/3 in series [1] (setting [2]), 1/3 in series [1] (setting [5]) and 1/1 in series [1] (setting [3]). Further, the “TOX, No. of animals exhibiting motor impairment/no. of used animals” value with neurotoxicity (rotarod) (setting [2]) is recorded as 7/8; in the series on neurotoxicity (rotarod) (setting [3]), 4/4; in the series with neurotoxicity (rotarod) (setting [6]), 1/1.

Turning to “R,S-2N-[(2,3-dimethylphenoxy)ethyl]amino-1-propanol [Compound 1]”, the “MES, No. of protected animals/No. of used animals” value in series [1] (setting [2]) is recorded as 3/3. The “TOX, No. of animals exhibiting motor impairment/no. of used animals” value with neurotoxicity (rotarod) (mouse, in vivo, 100 mg/kg) is given as 7/8; with neurotoxicity (rotarod) (mouse, in vivo, 300 mg/kg) it was 4/4.

These data come from patent publication US8633251B2, “Derivatives of aminoalkanols, method of obtaining of aminoalkanols and their use” (Uniwersytet Jagiellonski, priority 2008, dated 2014).
